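Cultured in 96-well plates, cells were exposed to test compound for 48 hours across five concentrations. GI50: concentration for 50% inhibition of growth.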 Active and inactive are the calls of the source. No stated cut-off is given here; in the data, active = GI50 up to about 1.1 µM and inactive = higher.
Key:
Assay in all cases: DTP human tumour cell line panel, 48 h
SF-539 = test system: SF-539
RPMI-8226 = test system: RPMI-8226
DMS-114 = test system: DMS-114
HT-29 = test system: HT-29
RXF 631 = test system: RXF 631
SNB-78 = test system: SNB-78
OVCAR-4 = test system: OVCAR-4
DMS-273 = test system: DMS-273
IGROV-1 = test system: IGROV-1
OVCAR-5 = test system: OVCAR-5
SF-268 = test system: SF-268
NCI-H460 = test system: NCI-H460
HL-60 = test system: HL-60
HCC 2998 = test system: HCC 2998
HOP-92 = test system: HOP-92
KM-20L2 = test system: KM-20L2
COLO 205 = test system: COLO 205
MOLT-4 = test system: MOLT-4
LOX IMVI = test system: LOX IMVI
SNB-75 = test system: SNB-75
SW-620 = test system: SW-620
A498 = test system: A498
KM12 = test system: KM12
SR = test system: SR
K562 = test system: K562
NCI-H23 = test system: NCI-H23
Malme-3M = test system: Malme-3M
UACC-62 = test system: UACC-62
OVCAR-8 = test system: OVCAR-8
ACHN = test system: ACHN
CAKI-1 = test system: CAKI-1
DLD-1 = test system: DLD-1
A549 = test system: A549
M14 = test system: M14
SK-MEL-2 = test system: SK-MEL-2
SNB-19 = test system: SNB-19
U-251 = test system: U-251
SF-295 = test system: SF-295
UO-31 = test system: UO-31
LXFL 529 = test system: LXFL 529
NCI-H522 = test system: NCI-H522
SK-OV-3 = test system: SK-OV-3
786-0 = test system: 786-0
HCT-116 = test system: HCT-116
CCRF-CEM = test system: CCRF-CEM
TK-10 = test system: TK-10
EKVX = test system: EKVX
OVCAR-3 = test system: OVCAR-3
SN12C = test system: SN12C
NCI-H226 = test system: NCI-H226
UACC-257 = test system: UACC-257
HCT-15 = test system: HCT-15
RXF 393 = test system: RXF 393
M19-MEL = test system: M19-MEL
HOP-62 = test system: HOP-62

Measured: GI50

Cc1ccccc1NC(=O)C(=O)CC(=O)c1sc(-n2nc(-c3ccccc3)cc2-c2ccccc2)nc1C
> 100 µM: HCT-15
inactive: SF-539 > 100 µM | RPMI-8226 > 100 µM | DMS-114 > 100 µM | HT-29 > 100 µM | RXF 631 > 100 µM | SNB-78 > 100 µM | OVCAR-4 > 100 µM | DMS-273 > 100 µM | IGROV-1 > 100 µM | OVCAR-5 > 100 µM | SF-268 > 100 µM | NCI-H460 > 100 µM | HL-60 > 100 µM | HCC 2998 > 100 µM | HOP-92 > 100 µM | KM-20L2 > 100 µM | COLO 205 > 100 µM | MOLT-4 > 100 µM | LOX IMVI > 100 µM | SNB-75 > 100 µM | SW-620 > 100 µM | A498 > 100 µM | KM12 > 100 µM | SR > 100 µM | K562 > 100 µM | NCI-H23 > 100 µM | Malme-3M > 100 µM | UACC-62 > 100 µM | OVCAR-8 > 100 µM | ACHN > 100 µM | CAKI-1 > 100 µM | DLD-1 > 100 µM | A549 > 100 µM | M14 > 100 µM | SK-MEL-2 > 100 µM | SNB-19 > 100 µM | U-251 > 100 µM | SF-295 > 100 µM | UO-31 > 100 µM | LXFL 529 > 100 µM | NCI-H522 > 100 µM | SK-OV-3 > 100 µM | 786-0 > 100 µM | HCT-116 > 100 µM | CCRF-CEM > 100 µM | TK-10 > 100 µM | EKVX > 100 µM | OVCAR-3 > 100 µM | SN12C > 100 µM | NCI-H226 > 100 µM | UACC-257 > 100 µM | RXF 393 > 100 µM | M19-MEL > 100 µM | HOP-62 > 100 µM
